Data from publication PMC11784839, “Monoaminergic neurotransmitters are bimodal effectors of tau aggregation” (Science Advances, 2025).

Biological target: tau (Homo sapiens, UniProt P10636)
Assay: MCE Phenols Library screening, tau biosensor cell seeding assay (AvZ)
Assay type: cell-based
Conditions: for Z repl 1 / Z Repl 2: Z score; for Z repl 1 / raw data 1: replicate 1; for Z Repl 2 / raw data 2: replicate 2; for AvZ (average z score of seeding, SDs from the mean level of seeding): 10 μM phenol in cell cultures, AD brain homogenate preincubated 16 hours, two biological replicates, positive = catalyzes seeding, negative = inhibits
[1] = average Z score of two replicates, Phenols Library screen
[2] = average Z score of the two replicates, MCE Phenols Library screen
[3] = average puncta of the two replicates
[4] = average Z score of the two replicates, tau seeding

tau, sequence (P10636 623-695 limits assumed): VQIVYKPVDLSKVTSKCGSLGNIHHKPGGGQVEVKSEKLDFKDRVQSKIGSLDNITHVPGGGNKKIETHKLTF

Row | SMILES | Z repl 1 | Z Repl 2 | av Z [1] | av puncta (average of raw data 1 and 2) | raw data 1 (puncta) | raw data 2 (puncta) | AvZ (average z score of seeding, SDs from the mean level of seeding) | av Z [2] | av puncta [3] | raw data 1 (raw puncta) | raw data 2 (raw puncta) | AvZ (average z score of seeding, SDs from the mean level of seeding) (listed as 6-Hydroxy melatonin) | av Z [4] | av Z (average Z score of the two replicates, tau biosensor seeding, MCE Phenols Library screen)
1 | COc1ccc(-c2cc(=O)c3c(O)c(OC)c(OC)cc3o2)cc1OC [5-Desmethylsinensetin] | 0.14 | -0.394 | -0.127 | 18294 | 28033.5 | 8554.47 | – | – | – | – | – | – | – | –
2 | COc1cc(/C=C/C(=O)O)cc(O)c1O [5-Hydroxyferulic acid] | -0.814 | -1.121 | – | 8685.03 | 16579.9 | 790.19 | -0.968 | – | – | – | – | – | – | –
3 | O=c1cc(-c2ccccc2)oc2cccc(O)c12 [5-Hydroxyflavone] | -1.378 | -0.72 | – | 7440.82 | 9800.36 | 5081.28 | – | -1.049 | – | – | – | – | – | –
4 | Oc1ccc2[nH]ccc2c1 [5-Hydroxyindole] | -0.683 | -0.549 | – | – | 18144.2 | 6901.21 | -0.616 | – | 12522.7 | – | – | – | – | –
5 | COc1ccc(O)c(C(=O)O)c1 [5-Methoxysalicylic acid] | -0.389 | 0.66 | – | 20749.6 | 21680.5 | 19818.6 | 0.136 | – | – | – | – | – | – | –
6 | COc1cc2c(=O)c(-c3ccc(O)cc3)coc2cc1O[C@@H]1O[C@H](COC(C)=O)[C@@H](O)[C@H](O)[C@H]1O [6''-O-Acetylglycitin] | -0.368 | -0.234 | – | – | – | – | – | -0.301 | 16095.7 | 21928.1 | 10263.4 | – | – | –
7 | CCCCC[C@H](O)CC(=O)CCc1ccc(O)c(OC)c1 [6-Gingerol] | – | – | – | – | – | – | 0.629 | – | – | – | – | – | – | –
8 | O=c1ccc2cc(O)ccc2o1 [6-Hydroxycoumarin] | -0.422 | 0.434 | 0.006 | 19344 | 21288.5 | 17399.5 | – | – | – | – | – | – | – | –
9 | O=c1cc(-c2ccc(O)c(O)c2)oc2cc(O[C@@H]3O[C@H](CO)[C@@H](O)[C@H](O)[C@H]3O)c(O)c(O)c12 [6-Hydroxyluteolin 7-glucoside] | -0.171 | -0.979 | – | – | 24297.8 | 2305.25 | – | -0.575 | 13301.5 | – | – | – | – | –
10 | COc1cc2c(CCNC(C)=O)c[nH]c2cc1O [6-Hydroxymelatonin] | 0.345 | -0.35 | – | 19759.2 | 30495.8 | 9022.73 | -0.003 | – | – | – | – | −0.003 | – | –
11 | COc1ccc(-c2cc(=O)c3c(O)cc(OC)cc3o2)cc1 [7,4'-Di-O-methylapigenin] | 0.072 | -0.073 | -0.001 | 19598.9 | 27207.6 | 11990.2 | – | – | – | – | – | – | – | –
12 | O=c1cc(-c2ccc(O)cc2)oc2cc(O)ccc12 [7,4'-Dihydroxyflavone] | 0.712 | -0.135 | – | 23112.9 | 34900.1 | 11325.8 | – | – | – | – | – | – | 0.289 | –
13 | O=c1cc(-c2ccccc2)oc2c(O)c(O)ccc12 [7,8-Dihydroxyflavone] | 1.412 | 0.928 | – | 32989.2 | 43302.3 | 22676 | – | – | – | – | – | – | – | 1.17
14 | O=c1ccoc2cc(O)ccc12 [7-Hydroxy-4H-chromen-4-one] | -0.015 | -0.619 | – | – | – | – | – | -0.317 | 16165.1 | 26174.7 | 6155.6 | – | – | –
15 | CC(C)=CCc1c(O)c(CC=C(C)C)c2oc3c(O)cccc3c(=O)c2c1O [8-Deoxygartanin] | -0.784 | -0.654 | – | – | 16933.5 | 5782.42 | – | -0.719 | 11358 | – | – | – | – | –
16 | CCCCCCC[C@H](O)CC(=O)CCc1ccc(O)c(OC)c1 [8-Gingerol] | 0.065 | -0.537 | – | – | – | – | -0.236 | – | 17076 | 27124.2 | 7027.77 | – | – | –
17 | COc1c2ccoc2c(O)c2oc(=O)ccc12 [8-Hydroxybergapten] | -0.103 | 0.252 | 0.074 | 20281.2 | 25106.7 | 15455.8 | – | – | – | – | – | – | – | –
18 | CCCCCCCCC[C@H](O)CC(=O)CCc1ccc(O)c(OC)c1 [10-Gingerol] | -0.921 | -0.318 | – | – | 15293.5 | 9373.24 | -0.619 | – | 12333.4 | – | – | – | – | –
19 | CCCCCCCCC/C=C/C(=O)CCc1ccc(O)c(OC)c1 [10-Shogaol] | – | – | – | – | – | – | -0.507 | – | – | – | – | – | – | –
20 | C=C(C)[C@H](CC=C(C)C)Cc1c(O)cc(OC)c2c1O[C@H](c1ccc(O)cc1OC)CC2=O [(2S)-2'-Methoxykurarinone] | 0.362 | 0.799 | – | 25999.8 | 30700.9 | 21298.7 | – | – | – | – | – | – | 0.581 | –
21 | CC(C)=CCc1c(O)cc2c(c1O)C(=O)C[C@@H](c1ccc(O)cc1)O2 [(2S)-6-Prenylnaringenin] | 0.006 | 0.268 | – | 21024 | 26415.8 | 15632.3 | – | – | – | – | – | – | 0.137 | –
